Article PMC10142904, “Identification of Novel Cyclooxygenase-1 Selective Inhibitors of Thiadiazole-Based Scaffold as Potent Anti-Inflammatory Agents with Safety Gastric and Cytotoxic Profile” (Molecules, 2023)

How the values were obtained:
[1] = tested on: gastric mucosa; assay: Ulcerogenic activity (gastric lesions after oral dosing); assay type: in vivo; settings: mice, oral 0.028 mmol/kg, 3 successive days, N = 5
Procedure: Gastric toxicity was conducted through oral administration of 0.028 mmol/kg of the tested derivatives on mice, and the extent of lesions of the gastric mucosa was measured. […] This study clearly indicated the superiority of our compounds over indomethacin concerning ulcerogenic liability.
The ulcerogenicity effect of compounds was assessed on male mice by following the reported protocol. Male mice weighing 22–25 g were separated into six groups (five animals in each group). […] The placebo control group was administrated saline with few drops of Tween-80. The animals were sacrificed 4 h after the last dose, and the stomachs were inspected for stomach lesions. The scoring of ulcerogenicity was expressed in terms of: average number of ulcers per stomach, percentage incidence of ulcers and percent incidence of ulcer divided by 10. The ulcer index was calculated using the sum of the three above values.

[2] = target: T1, ovine COX-1 (Ovis aries, UniProt P05979); assay: COX-1 inhibition (Cayman COX Inhibitor Screening Assay); assay type: biochemical
T1 construct: purchased Cayman Chemical Co., Ann Arbor, MI, USA
T1 sequence (P05979 25-600): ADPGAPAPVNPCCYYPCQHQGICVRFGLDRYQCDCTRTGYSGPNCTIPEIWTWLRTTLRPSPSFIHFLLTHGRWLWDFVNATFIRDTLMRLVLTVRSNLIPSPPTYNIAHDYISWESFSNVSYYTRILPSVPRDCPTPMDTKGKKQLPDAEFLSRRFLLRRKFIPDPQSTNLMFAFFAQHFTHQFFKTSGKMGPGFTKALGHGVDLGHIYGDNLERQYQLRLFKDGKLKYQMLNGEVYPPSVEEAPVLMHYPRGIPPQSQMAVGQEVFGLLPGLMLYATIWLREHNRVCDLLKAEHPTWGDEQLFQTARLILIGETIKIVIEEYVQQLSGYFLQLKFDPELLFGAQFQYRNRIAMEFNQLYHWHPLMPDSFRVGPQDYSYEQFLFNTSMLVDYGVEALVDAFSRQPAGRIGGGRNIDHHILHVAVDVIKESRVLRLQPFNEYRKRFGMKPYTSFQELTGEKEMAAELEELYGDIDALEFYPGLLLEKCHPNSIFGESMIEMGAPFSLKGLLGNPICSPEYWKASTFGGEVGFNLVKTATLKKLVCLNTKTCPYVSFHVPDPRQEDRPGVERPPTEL
Procedure: (§1) κ-Carrageenan and lipoxygenase type I-B from soybean were obtained from Sigma (St. Louis, MO, USA). COX inhibition was studied utilizing the kit of “COX Inhibitor Screening Assay” (Cayman Chemical Co., Ann Arbor, MI, USA).
(§2) The action of the tested derivatives on COX-1 and COX-2 inhibition was analyzed utilizing a commercial kit furnished by Cayman (Cayman Chemical Co., Ann Arbor, MI, USA) and by applying the instructions of the manufacturer. The kit utilizes human recombinant COX-2 and ovine COX-1 enzymes. […] The assay analyzes PGF2a produced by SnCl2 reduction of COX-derived PGH2.

[3] = tested on: T2, human recombinant COX-2; assay: COX-2 inhibition (Cayman COX Inhibitor Screening Assay); assay type: biochemical
T2 construct: purchased Cayman Chemical Co., Ann Arbor, MI, USA
Procedure: as §1, §2

[4] = tested on: MRC-5 cells; assay: Cytotoxicity / cell proliferation in MRC-5 cells; assay type: cell-based, human; settings: MRC-5 cells, 0.1, 1 and 10 μM, 48 h
Procedure: The evaluation of cellular cytotoxicity of derivatives 3, 4, 10, 11 and 14 in normal human MRC-5 cells was accomplished at three different concentrations in cell culture, i.e., 0.1, 1 and 10 μM (Figure 7). No substantial effect on cell proliferation after 48 h of exposure was found in cultures, as the growth was ≥98% for all assessed agents by comparison with the control (untreated cells) (Figure 7).
The MRC-5 human cell line from lung fibroblast was stored and then utilized in our laboratory in a conventional manner (passage < 40). MRC-5 cells were cultured (using a humidified atmosphere enclosing 5% CO2 at 37 °C) in medium DMEM with 10% v/v FBS, 1% PS penicillin–streptomycin. The assessed derivatives were dissolved in dimethyl sulfoxide and stored at a temperature of 4 degrees centigrade. For cytotoxicity assessment, cells were seeded in 96-well culture plates at 5 × 10^4 cells/mL (initial density) and permitted to attach for at least 3 h before adding the compounds at increasing concentrations (0.1, 1 and 10 µM). […] To evaluate the cytotoxicity of each derivative, the cells were given an additional 48 h to grow before estimating their number in culture utilizing the Neubauer counting chamber (microscope observation). In every treated culture, cell growth was expressed and reported as the percentage of untreated growing cells. GraphPad Prism 6.0 program was utilized in order to accomplish statistical t-test analysis.
Figure 7 Cell proliferation assessment of MRC-5 cell lines subjected to different derivatives in cell culture. MRC-5 cell lines grown in culture were incubated separately with each of the derivatives at concentrations of 0.1, 1 and 10 μM for 48 h. The cell number was analyzed in cell cultures with microscopic techniques (Neubauer counting chamber), as reported in “Methods” and expressed as % of the proliferation of cultures involving control untreated cells. […] The diagram illustrated above and the t-test statistical analysis were performed utilizing the GraphPad Prism 6.0 program. No significant statistical difference between the control untreated culture cells with each tested derivative was attained.

[5] = tested on: T3, soybean LOX; assay: LOX activity inhibition; assay type: biochemical
T3 construct: purchased Sigma (St. Louis, MO, USA)
Description: κ-Carrageenan and lipoxygenase type I-B from soybean were obtained from Sigma (St. Louis, MO, USA). COX inhibition was studied utilizing the kit of “COX Inhibitor Screening Assay” (Cayman Chemical Co., Ann Arbor, MI, USA). In vivo tests, male and female (23–30 g) mice R”’ were stored in the Centre of the School of Veterinary Medicine (EL54-BIO42), (Aristotle University of Thessaloniki, Thessaloniki, Greek), licensed by the state official veterinary authorities (presidential degree 56/2013, in standardization with the European Directive 2010/63/EEC). The experimental protocols were approved by the Committee of Animal Ethics of the Prefecture of Central Macedonia (no. 270079/2500).
The reaction mixture contained the final concentration (300 µΜ) of the test derivatives, dissolved in absolute ethanol (10–300 µM), or the solvent (control), soybean LOX, dissolved in 0.9% NaCl solution (250 u/mL) and sodium linoleate (100 µM), in Tris–HCl buffer, pH 9.0. The reaction was monitored for 7 min at a temperature of 28 °C, noting the absorbance (234 nm) of a conjugated diene structure, following the formation of 13-hydroperoxy-linoleic acid. The performance of the assay was validated utilizing NDGA as a standard. For the evaluation of the inhibition type, the above experiments were repeated, utilizing sodium linoleate (1 mM), which is greater than the saturating substrate concentration.

[6] = tested on: carrageenan-induced mouse paw edema; assay: Carrageenan-induced mouse paw edema; assay type: in vivo; settings: Mus musculus, ip, 3.5 h, i.p., 0.028 mmol/kg, paw weight after 3.5 h
Procedure: All tested compounds were administrated through i.p. with a molar concentration of 0.028 mmol/kg.
The animals were weighed and then randomly divided into control, standard and test groups with each group including 10 mice. […] Edema was induced by injecting 0.1 mL of 1% aqueous solution of carrageenan subcutaneously to the sub-plantar region of the right hind paw, utilizing the left paw as control. The assessed derivatives, in suspended water/Tween-80, were injected i.p. […] After 3.5 h, the hind paws were excised and were weighed separately. The edema paws were estimated as paw weight increase.

O=C1NC(=Nc2nnc(C34CC5CC(CC(C5)C3)C4)s2)SC1=Cc1c(Cl)cccc1Cl [Compound 14]
Number of Animals with Ulcer [1]: nil | COX-1 Inhibition, Inhibition (%) 200 μΜ ([2]; 200 μΜ): 100% | IC50 ([2]; read-out: COX-1 Inhibition, IC50 (μΜ)): 9.62 ± 0.5 µM | COX-2 Inhibition, Inhibition (%) 200 μΜ [3]: 0% | Cell growth by comparison with the control (untreated cells) [4]: ≥ 98% | Enzymatic inhibition against LOX (in words) [5]: modest enzymatic inhibition | LOX Inhibition (%) 100 μΜ ([5]; 100 μΜ): 34.5 ± 1.6 % | inhibition in vivo at 28 µmol/kg [6]: 60 ± 1.9%
